Assay results taken from publication PMC12362587, “Untargeted Diversity-Oriented Synthesis for the Discovery of New Antitumor Agents: An Integrated Approach of Inverse Virtual Screening, Bioinformatics, and Omics for Target Deconvolution” (Journal of Medicinal Chemistry, 2025).

Tests used:
[1] = MTT cell viability assay; type: cell-based, human; conditions: human, HaCaT keratinocyte cells (healthy control line), 24 h, compounds 0.01–40 μM, healthy control line, read-out: In Vitro Cytotoxicity, EC50 ± SD, HaCaT
Excerpt: Initially, we phenotypically screened the synthesized compounds over a panel of tumor cell lines composed of HEPG2, A375, SHSY5Y, MCF7, and A549 derived from liver tumor, melanoma, neuroblastoma, breast cancer, and lung adenocarcinoma, respectively. We also considered the HaCaT cell line, coming from keratinocytes, as a healthy control line. As reference, cytotoxic chemotherapeutic agent 5-fluorouracil (5-FU) has been used. The results obtained performing the MTT (3-(4,5-dimethylthiazolyl-2)-2,5-diphenyltetrazolium bromide) assay are summarized in Table .
The human neuroblastoma SHSY5Y, melanoma A375, human breast cancer MCF7, nonsmall lung cancer A549, and human epidermal keratinocyte HaCaT cell lines were obtained from ATCC and were grown in Dulbecco’s Modified Eagle Medium (DMEM) supplemented with 10% (v/v) FBS, 2 mM L-glutamine, 100 U/mL penicillin, and 0.1 mg/mL streptomycin.
Cell viability was established by measuring mitochondrial metabolic activity with MTT. In brief, HEPG2 (1 × 10^4 cells/well), A375 (2 × 10^3 cells/well), HaCaT (3 × 10^3 cells/well), A549 (3 × 10^3 cells/well), SHSY5Y (2 × 10^4 cells/well), and MCF 7 (5 × 10^3 cells/well) were plated into 96-well plates for 24 h, then the compounds (0.01–40 μM) were added. After 24h, cells were replaced with a fresh medium containing 0.5 mg/mL MTT. Cells were incubated 1–3 h at 37 °C, then the medium was discarded, and formazan blue crystals in the cells were dissolved in 100 μL per well of a solution containing isopropanol/HCl 0.1 M. The absorbance was measured at 570 nm using a microplate reader (Multiskan Go, Thermo Scientific, Waltham, MA, USA). Cell viability was expressed as a percentage relative to the untreated cells cultured in medium with 0.1% DMSO and set to 100%, whereas 10% DMSO was used as positive control and set to 0% of viability. The EC50 values were calculated using GraphPad Prism 8.0 software by nonlinear regression of dose–response inhibition.

[2] = molecular target: T1, A1 Human Adenosine GPCR (Homo sapiens, UniProt P30542); experiment: Binding Antagonist Radioligand LeadHunter Assay; conditions: Eurofins, read-out: EC50 or IC50, A1 Human Adenosine GPCR, antagonist radioligand
T1 construct: Eurofins (contract assay)
T1 sequence (P30542 1-326): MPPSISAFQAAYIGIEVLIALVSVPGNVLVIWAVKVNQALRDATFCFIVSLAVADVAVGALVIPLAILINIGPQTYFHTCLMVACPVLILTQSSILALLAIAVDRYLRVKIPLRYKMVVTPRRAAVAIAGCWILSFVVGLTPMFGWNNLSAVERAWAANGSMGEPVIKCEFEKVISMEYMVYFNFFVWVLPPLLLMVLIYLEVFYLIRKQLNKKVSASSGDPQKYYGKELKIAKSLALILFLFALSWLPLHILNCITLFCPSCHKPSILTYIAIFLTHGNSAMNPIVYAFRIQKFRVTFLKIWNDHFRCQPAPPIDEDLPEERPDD
Excerpt: (§1) For displacement assays on G-protein coupled receptor 55 (GPR55), Vasopressin V2 receptor (V2R), Adenosine A1 receptor (A1AR), Fibroblast growth factor receptor 1 (FGFR1), Vascular endothelial growth factor receptor 2 (VEGFR2), Platelet-derived growth factor receptor beta (PDGFRB), Vascular endothelial growth factor receptor 1 (VEGFR1), Thromboxane Synthase (TXS) and Phosphodiesterase 10A (PDE10A), we commissioned the Eurofins company which employed its specific experimental methods, accessible at the link: https://www.eurofins.com/.

[3] = molecular target: T2, G-protein coupled receptor 55 (Homo sapiens, UniProt Q9Y2T6); experiment: Cell Based Agonist Arrestin LeadHunter Assay; conditions: Eurofins, read-out: EC50 or IC50, G-protein coupled receptor 55, agonist mode
T2 construct: Eurofins (contract assay)
T2 sequence (Q9Y2T6 whole entry): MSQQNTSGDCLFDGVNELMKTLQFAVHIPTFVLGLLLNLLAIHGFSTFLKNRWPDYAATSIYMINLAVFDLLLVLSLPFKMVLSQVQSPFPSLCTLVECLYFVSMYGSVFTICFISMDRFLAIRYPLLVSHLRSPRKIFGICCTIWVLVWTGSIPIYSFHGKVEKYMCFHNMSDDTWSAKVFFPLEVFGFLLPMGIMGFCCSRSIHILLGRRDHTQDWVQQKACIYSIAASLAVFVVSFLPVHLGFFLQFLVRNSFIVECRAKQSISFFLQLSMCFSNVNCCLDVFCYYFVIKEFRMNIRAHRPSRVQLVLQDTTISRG
Excerpt: as §1

[4] = test system: A375 cells; experiment: Thioflavin T (ThT) protein misfolding assay; type: cell-based, human; conditions: 24 h, 31: 10, 5, 2.5 μM, 63: 20, 10, 5 μM
Protocol: Protein misfolding was analyzed using ThT, (Sigma-Aldrich, St. Louis, MO, USA) staining. A375 cells (5 × 10^3 cells/well) were grown in 96-well plates and allowed to adhere for 24 h. Later the medium was replaced, and cells were treated with compounds (31: 10, 5, and 2.5 μM; 63: 20, 10, and 5 μM), for 24 h. After treatments, the culture medium was replaced, cells washed twice with PBS and then suspended in 100 μL ThT (20 μM). After washing, a staining solution containing 20 μM ThT in PBS was added for 30 min at 37 °C in the dark. The stained cells were washed, and representative images were acquired using ZOE Fluorescent Cell Imaging System (Magnification, 20×). Quantitative analyses were performed reading the fluorescence signals (excitation/emission 450 nm/482 nm) using a PerkinElmer EnSpire multimode plate reader (PerkinElmer, Waltham, MA, USA).

[5] = molecular target: human CB2R (Homo sapiens, UniProt P34972); experiment: cAMP Hunter assay, functional activity at CB2R; type: cell-based; parameters: host or cells: CHO-K1; conditions: CHO cells expressing human CB2R, alone and with JWH133
human CB2R, sequence (P34972 whole entry): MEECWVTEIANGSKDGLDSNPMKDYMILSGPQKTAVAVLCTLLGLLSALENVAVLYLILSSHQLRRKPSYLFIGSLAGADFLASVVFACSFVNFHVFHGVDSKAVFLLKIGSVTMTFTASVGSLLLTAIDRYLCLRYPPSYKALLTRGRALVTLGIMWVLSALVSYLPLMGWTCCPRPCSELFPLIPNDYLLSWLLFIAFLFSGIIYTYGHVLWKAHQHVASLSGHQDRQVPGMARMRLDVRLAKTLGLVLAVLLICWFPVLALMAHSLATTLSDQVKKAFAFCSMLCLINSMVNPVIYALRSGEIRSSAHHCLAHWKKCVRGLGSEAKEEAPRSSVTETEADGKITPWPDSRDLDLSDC
Protocol: The curves show the effect of increasing concentrations of the compound on NKH-477-induced cAMP levels in stable CHO cells expressing the human CB2R. The effect of JWH-133 is reported as a reference compound. Data are reported as means ± standard error of three independent experiments conducted in triplicate and normalized considering the NKH-477 stimulus alone as 100% of the response as indicated in the experimental session. EC50 was determined by GraphPad Prism 9 as the concentration that provokes the response halfway between the baseline (bottom) and maximum response (top) of the fitted dose–response.
The functional activity at CB2Rs was evaluated using the cAMP Hunter assay with an enzyme fragment complementation chemiluminescent detection kit, as previously reported. Following the manufacturer’s instructions, this assay measured Gi-coupled cAMP modulation in CB2R-expressing cell lines (DiscoveRx, Fremont, CA). Briefly, CHO-K1 cells overexpressing the human CB2Rs were plated in a 96-well plate at a density of 10,000 cells per well and incubated overnight at 37 °C in 5% CO2. […] Following stimulation, the cells were lysed, and cAMP levels were detected according to the manufacturer’s protocol. Luminescence was measured using the GloMax Multi-Detection System (Promega, Italy). Results were expressed as mean ± SEM and derived from three independent experiments conducted in triplicate. […]

| IC50 [2] [µM] | EC50 [3] [µM] | functional activity at CB2R (NKH-477-induced cAMP levels) [5] | SMILES | EC50 at 24 h [1] [µM] | misfolded protein levels (ThT fluorescence) [4] |
| --- | --- | --- | --- | --- | --- |
| ≥ 30 | ≥ 30 | – | CC(C)C[C@H]1C(=O)N(Cc2ccc(C(F)(F)F)cc2)c2ccccc2C(=O)N1Cc1ccc(C(F)(F)F)cc1 [Compound 31, (S)-3-Isobutyl-1,4-bis(4-(trifluoromethyl)benzyl)-3,4-dihydro-1H-benzo[e][1,4]diazepine-2,5-dione] | > 40 | maximum accumulation of misfolded proteins even at 10 μM |
| ≥ 30 | ≥ 30 | functional inverse agonist activity | CC(C)C[C@@H](C(=O)OCc1ccccc1)N1Cc2ccccc2NC1=O [Compound 63, Benzyl (S)-4-Methyl-2-(2-oxo-1,4-dihydroquinazolin-3(2H)-yl)pentanoate] | 21.4 ± 0.78 | greatest increase in fluorescence at 20 μM |
